Reference: the supplement of paper PMC3974653
Counter-ions that a name gives are not always drawn.

Each molecule was assayed on MTT (mouse pheochromocytoma) (assay: IC50 of cell viability (ATP content)). Conditions: (24 or 48 h).
Summary of the method: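 Each well of a white 1536-well plate received 5 µl of MTT mouse pheochromocytoma cells at 200,000 cells/ml in DMEM containing 5% FBS and 1% horse serum. After overnight culture at 37°C, 5% CO2, cells were exposed for 24 or 48 hrs to 23 nl of library compound in DMSO, pinned at 8 final concentrations from 0.5 nM to 46 µM. CellTiter-Glo luminescence was read after 15 minutes, and IC50 was obtained from a four-parameter logistic fit of signals normalised to positive-control and DMSO wells.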

Q: With C[N+](C)(C)CC[N+]1(C)Cc2c(Cl)c(Cl)c(Cl)c(Cl)c2C1 [CHLORISONDAMINE] as the molecule, how does the “IC50 of cell viability” value read?
A: The value was > 46 µM.

Q: Cc1ncsc1CCCl [CHLORMETHIAZOLE] was tested. Which “IC50 of cell viability” value did it give?
A: The value was > 46 µM.

Q: With CN1C(=O)CC[S+](=O)([O-])C1c1ccc(Cl)cc1 (stereo unspecified) [CHLORMEZANONE] as the molecule, how does the “IC50 of cell viability” value read?
A: Its value is > 46 µM.

Q: With Cc1ccc(Cl)c(O)c1 [CHLORO-M-CRESOL] as the molecule, how does the “IC50 of cell viability” value read?
A: Its value is > 46 µM.

Q: How did the “IC50 of cell viability” value turn out when CC(C)(O)C(Cl)(Cl)Cl [CHLOROBUTANOL] was run?
A: The value was > 46 µM.

Q: With CC[NH+](CC)CCOC(=O)c1ccc(N)cc1Cl [CHLOROPROCAINE HYDROCHLORIDE] as the molecule, how does the “IC50 of cell viability” value read?
A: Its value is > 46 µM.

Q: For Cc1cc(O)c(C(C)C)cc1Cl [CHLOROTHYMOL], which “IC50 of cell viability” value is on record?
A: The value was > 46 µM.

Q: For C=C1CC[C@H](O)C/C1=C/C=C1\CCC[C@]2(C)[C@@H]([C@H](C)CCCC(C)C)CC[C@@H]12 [CHOLECALCIFEROL], which “IC50 of cell viability” value is on record?
A: The value was > 46 µM.

Q: CC(C)CCC[C@@H](C)[C@H]1CC[C@H]2[C@@H]3CC=C4C[C@@H](O)CC[C@]4(C)[C@H]3CC[C@]12C [CHOLESTEROL] was tested. Which “IC50 of cell viability” value did it give?
A: Its value is > 46 µM.

Q: Which “IC50 of cell viability” value does the source give for O=C(O)c1ccccn1 [CHROMIUM PICOLINATE] here?
A: The value was > 46 µM.

Q: With OC(=O)C/1=C/C(=O)C2=C(O1)C=CC=C2 [CHROMOCARB] as the molecule, how does the “IC50 of cell viability” value read?
A: Its value is > 46 µM.

Q: For COC(C(=O)C(O)C(C)O)C1Cc2cc3cc(OC4CC(OC5CC(O)C(OC)C(C)O5)C(OC(C)=O)C(C)O4)c(C)c(O)c3c(O)c2C(=O)C1OC1CC(OC2CC(OC3CC(C)(O)C(OC(C)=O)C(C)O3)C(O)C(C)O2)C(O)C(C)O1 (stereo unspecified) [CHROMOMYCIN A3], which “IC50 of cell viability” value is on record?
A: Its value is > 46 µM.

Q: Which “IC50 of cell viability” value does the source give for Nc1c(/N=N/c2ccc(-c3ccc(/N=N/c4cc(S(=O)(=O)[O-])c5ccccc5c4N)cc3)cc2)cc(S(=O)(=O)[O-])c2ccccc12 [CI DIRECT RED 28] here?
A: Its value is > 46 µM.

Q: Which “IC50 of cell viability” value does the source give for O=C(NOCC1CC1)c1ccc(F)c(F)c1Nc1ccc(I)cc1Cl [CI-1040] here?
A: The value was > 46 µM.

Q: With CC(C)C(=O)OCC(=O)[C@@]12OC(C3CCCCC3)O[C@@H]1CC1C3CCC4=CC(=O)C=C[C@]4(C)C3[C@@H](O)C[C@@]12C (stereo partly specified) [CICLESONIDE] as the molecule, how does the “IC50 of cell viability” value read?
A: The value was > 46 µM.

Q: For NC/1=N/C(=O)N(C[C@@H](CO)OC[P](O)(O)=O)/C=C1 [CIDOFOVIR], which “IC50 of cell viability” value is on record?
A: The value was > 46 µM.

Q: With CC1(C)CC1C(=O)N/C(=C/CCCCSCC(N)C(=O)[O][Na])C(=O)O (stereo unspecified) [CILASTATIN SODIUM] as the molecule, how does the “IC50 of cell viability” value read?
A: The value was > 46 µM.

Q: How did the “IC50 of cell viability” value turn out when CC1(C)C[C@@H]1C(=O)N/C(=C\CCCCSC[C@H](N)C(=O)O)C(=O)O [CILASTATIN SODIUM] was run?
A: The value was > 46 µM.

Q: How did the “IC50 of cell viability” value turn out when COc1ccc([C@]2(C#N)CC[C@H](C(=O)O)CC2)cc1OC1CCCC1 [CILOMILAST] was run?
A: The value was > 46 µM.

Q: For O=C1CCc2cc(OCCCCc3nnnn3C3CCCCC3)ccc2N1 [CILOSTAZOL], which “IC50 of cell viability” value is on record?
A: Its value is > 46 µM.

Q: Which “IC50 of cell viability” value does the source give for CC(C)NCC(O)c1ccc(N)c(C#N)c1 (stereo unspecified) [CIMATEROL] here?
A: The value was > 46 µM.

Q: Which “IC50 of cell viability” value does the source give for CCC(CC)(CC(=O)Nc1cccc(/C=C/c2nc(C3CCC3)cs2)c1)C(=O)O [CINALUKASTUM] here?
A: Its value is > 46 µM.

Q: CN(C)CCCSc1ccccc1NC(=O)/C=C/c1ccccc1 [CINANSERIN] was tested. Which “IC50 of cell viability” value did it give?
A: Its value is > 46 µM.

Q: With O=C(O)c1cc(-c2ccccc2)nc2ccccc12 [CINCHOPHENUM] as the molecule, how does the “IC50 of cell viability” value read?
A: The value was > 46 µM.

Q: COc1cc(/C=C/C(=O)N2CCN(CC(=O)N3CCCC3)CC2)cc(OC)c1OC [CINEPAZIDE MALEATE] was tested. Which “IC50 of cell viability” value did it give?
A: The value was > 46 µM.

Q: How did the “IC50 of cell viability” value turn out when O=C/C=C/c1ccccc1 [CINNAMALDEHYDE] was run?
A: The value was > 46 µM.

Q: O=C(O)/C=C/c1ccccc1 [CINNAMIC ACID] was tested. Which “IC50 of cell viability” value did it give?
A: Its value is > 46 µM.

Q: CCNC(=O)/C=C/c1cccc(Br)c1 [CINROMIDUM] was tested. Which “IC50 of cell viability” value did it give?
A: The value was > 46 µM.

Q: With C1C\N=C(\COC2=C(C=CC=C2)C3CC3)N1 [CIRAZOLINE] as the molecule, how does the “IC50 of cell viability” value read?
A: The value was > 46 µM.

Q: With CCC1OC(=O)C(C)[C@@H](O[C@H]2C[C@@](C)(OC)C(O)C(C)O2)C(C)[C@@H](O[C@@H]2OC(C)CC(N(C)C)C2O)[C@@](C)(OC)CC(C)C(=O)[C@@H](C)C(O)[C@]1(C)O (stereo partly specified) [CLARITHROMYCIN] as the molecule, how does the “IC50 of cell viability” value read?
A: The value was > 46 µM.

Q: O=C(O)C1/C(=C/CO)OC2CC(=O)N21.[Li] (stereo unspecified) [CLAVULANATE LITHIUM] was tested. Which “IC50 of cell viability” value did it give?
A: The value was > 46 µM.

Q: Which “IC50 of cell viability” value does the source give for CC(C)(C)NCC(O)c1cc(Cl)c(N)c(Cl)c1 (stereo unspecified) [CLENBUTEROL] here?
A: The value was > 46 µM.

Q: Which “IC50 of cell viability” value does the source give for CCC[C@H]1C[C@H](C(=O)NC(C(C)Cl)C2O[C@@H](SC)C(OP(=O)(O)O)[C@@H](O)[C@@H]2O)N(C)C1 (stereo partly specified) [CLINDAMYCIN PO4] here?
A: Its value is > 46 µM.

Q: For CCC(C)(Oc1ccc(C2(c3ccc(OC(C)(CC)C(=O)O)cc3)CCCCC2)cc1)C(=O)O (stereo unspecified) [CLINOFIBRATE], which “IC50 of cell viability” value is on record?
A: The value was > 46 µM.

Q: Which “IC50 of cell viability” value does the source give for CN1C(=O)CC(=O)N(c2ccccc2)c2cc(Cl)ccc21 [CLOBAZAM] here?
A: Its value is > 46 µM.

Q: For CC(Cc1ccccc1)NCc1ccccc1Cl (stereo unspecified) [CLOBENZOREX], which “IC50 of cell viability” value is on record?
A: Its value is > 46 µM.

Q: Which “IC50 of cell viability” value does the source give for CCCC(=O)O[C@]1(C(=O)CCl)C(C)CC2C3CCC4=CC(=O)C=CC4(C)[C@@]3(F)C(=O)CC21C (stereo partly specified) [CLOBETASONE BUTYRATE] here?
A: The value was > 46 µM.

Q: Which “IC50 of cell viability” value does the source give for CC(CN(C)C)C(C)(O)Cc1ccc(Cl)cc1 (stereo unspecified) [CLOBUTINOL HYDROCHLORIDE] here?
A: Its value is > 46 µM.

Q: With CCOP(=O)(OCC)O/C(=C/Cl)c1ccc(Cl)cc1Cl [CLOFENVINFOSUM] as the molecule, how does the “IC50 of cell viability” value read?
A: Its value is > 46 µM.

Q: How did the “IC50 of cell viability” value turn out when CCN(CC)CCNC(=O)COc1ccc(Cl)cc1 [CLOFEXAMIDUM] was run?
A: Its value is > 46 µM.

Q: With CC(C)(C)CC(C)(C)c1ccc(O)c(Cc2ccc(Cl)cc2Cl)c1 [CLOFOCTOL] as the molecule, how does the “IC50 of cell viability” value read?
A: The value was > 46 µM.

Q: How did the “IC50 of cell viability” value turn out when CN(C)CCCN1c2ccccc2CCc2ccc(Cl)cc21 [CLOMIPRAMINE] was run?
A: The value was > 46 µM.

Q: How did the “IC50 of cell viability” value turn out when Clc1cccc(Cl)c1N=C1NCCN1 [CLONIDINE] was run?
A: The value was > 46 µM.

Q: How did the “IC50 of cell viability” value turn out when Cc1c(Cl)cccc1Nc1ncccc1C(=O)O [CLONIXINUM] was run?
A: The value was > 46 µM.

Q: For COC(=O)C(c1ccccc1Cl)N1CCc2sccc2C1 (stereo unspecified) [CLOPIDOGREL BISULFATE], which “IC50 of cell viability” value is on record?
A: The value was > 46 µM.

Q: With Cc1nc(C)c(Cl)c(O)c1Cl [CLOPIDOL] as the molecule, how does the “IC50 of cell viability” value read?
A: The value was > 46 µM.

Q: For O=C([O-])CCC/C=C\C[C@@H]1[C@@H](/C=C/[C@@H](O)COc2cccc(Cl)c2)[C@H](O)C[C@@H]1O [CLOPROSTENOL SODIUM], which “IC50 of cell viability” value is on record?
A: The value was > 46 µM.

Q: CCOC(=O)COC1=C(Cl)C2=C(C=C1)\C(=C(CCN(CC)CC)/C(=O)O2)C [CLORICROMENUM] was tested. Which “IC50 of cell viability” value did it give?
A: The value was > 46 µM.

Q: CC(C)NCC(O)c1ccccc1Cl (stereo unspecified) [CLORPRENALINE HYDROCHLORIDE] was tested. Which “IC50 of cell viability” value did it give?
A: Its value is > 46 µM.

Q: Which “IC50 of cell viability” value does the source give for CN1CCN(CC1)\C2=N\C3=C(NC4=C2C=CC=C4)C=CC(=C3)Cl [CLOZAPINE] here?
A: The value was > 46 µM.

Q: Which “IC50 of cell viability” value does the source give for CCc1cccc(N(C)C(=N)Nc2cccc3ccccc23)c1.Cl [CNS-1102] here?
A: The value was > 46 µM.
